Patent US20250194597A1, “METHOD FOR INCREASING FLAVONOID CONTENT IN PLANT THROUGH TREATMENT WITH LOW-MOLECULAR-WEIGHT SULFUR COMPOUND” (REPUBLIC OF KOREA (RURAL DEVELOPMENT ADMINISTRATION), priority 2022, published 2025)

Columns and labels:
Type in all cases: in vivo
[1] = test system: Chinese cabbage cultivar 5923; assay: Anthocyanin coloration observed with the naked eye, Chinese cabbage cultivar 5923 seedlings; details: cultured 10 days
Experimental: (§1) 3-(3-Thienyl) acrylic acid (hereinafter referred to as S17) and 3-(2-Thienyl) acrylic acid (hereinafter referred to as 3-(2-S)) dissolved in DMSO at a concentration of 50 μM or 200 μM, respectively, were prepared, and seeds of commercial Chinese cabbage cultivars 5923 and Hwimori were sterilized and then germinated on ½ MS solid medium to prepare 4-day seedlings showing consistent growth.

[2] = test system: Chinese cabbage cultivar Whimori; assay: Anthocyanin coloration observed with the naked eye, Chinese cabbage cultivar Whimori seedlings; details: 50 μM or 200 μM, cultured 10 days
Experimental: as §1

[3] = test system: Chinese cabbage cultivar 5923; assay: Flavonoid content of leaves by HPLC after aglyconization, cultivar 5923; details: for cyanidin accumulation: 200 μM alone (no sucrose); for kaempferol content: treated alone (no sucrose), 50 and 200 μM, vs control
Experimental: as §1
(§2) The leaves of the cultivars 5923 and Whimori prepared in Example 1-1 were collected and crushed, and then extracted with 50% methanol containing 2N HCl at 95° C. for 2 hours, and flavonoid substances present in the form of glycosides in the plants were aglyconized and analyzed by HPLC. After the substances were separated through HPLC using a C18 column, peaks were detected at 350 nm and 520 nm, and flavonoids and anthocyanin non-glycosides in the extract were identified by comparing the retention time and UV spectrum of flavonol non-glycoside standards such as kaempferol, quercetin, myricetin and isorhamnetin, and anthocyanin non-glycoside standards such as pelargonidin, cyanidin and delphinidin, respectively, and the content of the identified flavonoid and anthocyanin substances was estimated based on the concentration of the standards and the area of the peak. As a control group, the cultivar 5923 or Whimori that was not treated with sulfur compounds was used.

[4] = test system: Chinese cabbage cultivar Whimori; assay: Flavonoid content of leaves by HPLC after aglyconization, cultivar Whimori
Experimental: as §1, §2

[5] = test system: Arabidopsis thaliana; assay: Anthocyanin coloration of Arabidopsis thaliana seedlings; details: cultured 5 days; for anthocyanin coloration: 50 μM or 200 μM + 4% sucrose
Experimental: To confirm whether anthocyanin coloring effect occurs when Arabidopsis thaliana, which is a cruciferous plant such as Chinese cabbage, is treated with S17 or 3-(2-S), Arabidopsis thaliana was treated with S17 or 3-(2-S) alone, and each was treated with 4% sucrose. Specifically, Arabidopsis thaliana seeds were germinated on ½ MS solid medium supplemented with 1% sucrose, and then day 6 seedlings were placed on ½ MS medium supplemented with each of S17 (50 μM or 200 μM)+4% sucrose, or 3-(2-S) (50 μM or 200 μM)+4% sucrose and cultured for 5 days to observe anthocyanin coloration.

[6] = test system: rice cultivar purple rice; assay: Anthocyanin coloration of rice cultivar purple rice; details: for anthocyanin coloration in the hypocotyls: cultured 7 days
Experimental: To confirm whether anthocyanin coloring effects occur when not only dicotyledonous plants but also gramineous plants, which are monocotyledonous plants, are treated with S17 or 3-(2-S), seeds of the rice cultivar purple rice were sown on ½ MS medium containing each of S17 (40 μM) or 3-(2-S) (80 μM) and cultured for 7 days to observe anthocyanin coloration.

SMILES: O=C(O)/C=C/c1cccs1 [3-(2-S), 3-(2-Thienyl) acrylic acid]
- anthocyanin coloration (naked eye) ([1]; 200 μM + 4% sucrose): Coloration was confirmed
- anthocyanin coloration (naked eye) [2]: red coloration in Chinese cabbage in a concentration-dependent manner
- cyanidin accumulation [3]: cyanidin was accumulated
- kaempferol content [3]: increased in a concentration-dependent manner
- production of cyanidin ([4]; 200 μM + 4% sucrose): produced
- production of isorhamnetin ([4]; 200 μM + 4% sucrose): produced
- production of quercetin ([4]; 200 μM + 4% sucrose): produced
- kaempferol content ([4]; + 4% sucrose, concentration dependence): increased in a concentration-dependent manner
- kaempferol content compared to the control group ([4]; treated alone (no sucrose)): remarkably increased
- anthocyanin coloration [5]: anthocyanin coloration occurred
- anthocyanin coloration in the hypocotyls ([6]; 80 μM): anthocyanin coloration was strong

SMILES: O=C(O)/C=C/c1ccsc1 [S17, 3-(3-Thienyl) acrylic acid]
- anthocyanin coloration (naked eye) ([1]; 50 μM + 4% sucrose): coloration appeared on the back of the cotyledons and true leaves
- anthocyanin coloration (naked eye) ([1]; 200 μM + 4% sucrose): slightly increased coloration appeared
- anthocyanin coloration (naked eye) ([1]; 200 μM alone, no sucrose): coloration appeared on the back of the leaves
- anthocyanin coloration (naked eye) [2]: red coloration in Chinese cabbage in a concentration-dependent manner
- kaempferol content increase compared to the control group ([3]; 50 μM + 4% sucrose): up to 6.3 times
- production of isorhamnetin ([3]; 50 μM + 4% sucrose): confirmed
- production of quercetin ([3]; 50 μM + 4% sucrose): confirmed
- cyanidin content compared to the control group ([3]; 200 μM + 4% sucrose): remarkably increased
- cyanidin accumulation [3]: cyanidin was accumulated
- anthocyanin production ability ([3]; 200 μM vs 50 μM treated group, + 4% sucrose): remarkably enhanced
- kaempferol content [3]: increased in a concentration-dependent manner
- kaempferol content compared to the control group ([4]; 50 μM and 200 μM + 4% sucrose): remarkably increased
- production of cyanidin ([4]; 50 μM and 200 μM + 4% sucrose): produced
- production of isorhamnetin ([4]; 50 μM and 200 μM + 4% sucrose): produced
- production of quercetin ([4]; 50 μM and 200 μM + 4% sucrose): produced
- kaempferol content compared to the control group ([4]; treated alone (no sucrose)): remarkably increased
- anthocyanin coloration [5]: anthocyanin coloration occurred
- anthocyanin coloring compared to the 3-(2-S) treated group ([5]; + 4% sucrose): stronger coloring
- anthocyanin coloration in the hypocotyls ([6]; 40 μM): anthocyanin coloration was strong
- coloration-inducing effect (anthocyanin production effect) relative to 3-(2-S) ([6]; S17 40 μM vs 3-(2-S) 80 μM): comparatively superior
